We go through 18 molecules from patent publication US20130344026A1, “Dimeric Smac Mimetics” (priority 2009, published 2013).

Where two headings read alike, the source gives them in different places.

This test has as its system PANC-1 cells. The test can be described thus: cell viability assay in PANC-1 cells (compound alone, + 100 ng/ml TNFa, + 300 ng/ml TRAIL). The test is classed as cell-based.
The mark [1] stands for this setting: Homo sapiens, PANC-1, compound alone, Tables 6-10, read-out: IC50 (μM) in cell viability assay in PANC-1 cells: Compound alone.
The mark [2] stands for this setting: with 100 ng/ml TNFa, Tables 6-10, read-out: IC50 (μM) in cell viability assay in PANC-1 cells: Compound + 100 ng/ml TNFa.
Setting [3] is: with 300 ng/ml TRAIL, Tables 6-10, read-out: IC50 (μM) in cell viability assay in PANC-1 cells: Compound + 300 ng/ml TRAIL.
The mark [4] stands for this setting: Homo sapiens, PANC-1, compound alone, Tables 15-18, read-out: IC50 (uM) in cell viability assay in PANC-1 cells: Cmpnd alone.
Setting [5] is: with 100 ng/ml TNFa, Tables 15-18, read-out: IC50 (uM) in cell viability assay in PANC-1 cells: Cmpnd + 100 ng/ml TNFa.
Where [6] appears, read: with 300 ng/ml TRAIL, Tables 15-18, read-out: IC50 (uM) in cell viability assay in PANC-1 cells: Cmpnd + 300 ng/ml TRAIL.

As for `CN[C@@H](C)C(=O)N[C@H](C(=O)N[C@@H](CCNC(=O)c1ccc2cc(C(=O)N[C@H]3C[C@@H](C(=O)N[C@@H]4CCCc5ccccc54)N(C(=O)[C@@H](NC(=O)[C@H](C)NC)C(C)(C)C)C3)ccc2c1)C(=O)N[C@H](C)C(C)C)C(C)C` [Compound 185], the IC50 is greater than 1 µM under setting [1], 0.008 µM under setting [2] and 0.004 µM under setting [3].
On to `CN[C@@H](C)C(=O)N[C@H](C(=O)N1CCC[C@H]1c1nc(C(=O)NCCCCCCCCNC(=O)c2nc([C@@H]3CCCN3C(=O)[C@@H](NC(=O)[C@H](C)NC)C(C)(C)C)oc2-c2c[nH]c3ccccc23)c(-c2c[nH]c3ccccc23)o1)C(C)(C)C` [Compound P4-26], for which the IC50 reads like this: under setting [4], greater than 1 µM; under setting [5], 0.0007 µM; under setting [6], 0.0007 µM.
Turning to `CN[C@@H](C)C(=O)N[C@H](C(=O)N1C[C@H](NC(=O)c2ccc(CCc3ccc(C(=O)N[C@@H]4C[C@@H](C(=O)N[C@@H]5CCCc6ccccc65)N(C(=O)[C@@H](NC(=O)[C@H](C)NC)C(C)(C)C)C4)cc3)cc2)C[C@H]1C(=O)N[C@@H]1CCCc2ccccc21)C(C)(C)C` [Compound P2-46], the IC50 runs as follows: under setting [4], greater than 1 µM; under setting [5], 0.0007 µM; under setting [6], 0.0009 µM.
Take `CN[C@@H](C)C(=O)N[C@@H](C)C(=O)N[C@@H](CCNC(=O)c1cccc(C(=O)N[C@H]2C[C@@H](C(=O)N[C@@H]3CCCc4ccccc43)N(C(=O)[C@@H](NC(=O)[C@H](C)NC)C(C)(C)C)C2)c1)C(=O)N[C@H](C)c1ccccc1` [Compound 178]: the IC50 is greater than 1 µM under setting [1], 0.054 µM under setting [2] and 0.089 µM under setting [3].
Consider `CN[C@@H](C)C(=O)N[C@H](C(=O)N1CCC[C@H]1C(=O)N[C@H]1c2ccccc2C[C@@H]1NC(=O)CCCCC(=O)N[C@H]1Cc2ccccc2[C@@H]1NC(=O)[C@@H]1CCCN1C(=O)[C@@H](NC(=O)[C@H](C)NC)C(C)(C)C)C(C)(C)C` [Compound 123], for which the IC50 was greater than 1 µM under setting [1], 0.069 µM under setting [2] and 0.067 µM under setting [3].
In the same order, the values of `CN[C@@H](C)C(=O)N[C@H](C(=O)N1C[C@@H](NC(=O)c2ccc(C(=O)N3CCN(C(=O)[C@H](C)NC)CC3)cc2)C[C@H]1C(=O)N[C@@H]1CCCc2ccccc21)C(C)(C)C` [Compound 188] are greater than 1 µM, 0.56 µM and 0.55 µM.
On to `CN[C@@H](C)C(=O)N[C@H](C(=O)N1C[C@@H](NC(=O)c2cccc(C(=O)N[C@H]3C[C@@H](C(=O)NC4CCSc5ccccc54)N(C(=O)[C@@H](NC(=O)[C@H](C)NC)C(C)(C)C)C3)c2)C[C@H]1C(=O)NC1CCSc2ccccc21)C(C)(C)C` (single isomer, unassigned) [Compound 68], for which the IC50 (compound alone, Tables 6-10, read-out: IC50 (μM) in cell viability assay in PANC-1 cells: Compound alone) was greater than 1 µM; the IC50 under setting [2] was found to be 0.029 µM; the IC50 under setting [3] was 0.019 µM.
Take `CCCC[C@H](C)NC(=O)c1cc(C(=O)N[C@H]2C[C@@H](C(=O)N[C@@H]3CCCc4ccccc43)N(C(=O)[C@@H](NC(=O)[C@H](C)NC)C(C)(C)C)C2)cc(C(=O)N[C@H]2C[C@@H](C(=O)N[C@@H]3CCCc4ccccc43)N(C(=O)[C@@H](NC(=O)[C@H](C)NC)C(C)(C)C)C2)c1` [Compound 130]: the IC50 is greater than 1 µM under setting [1], 0.018 µM under setting [2] and 0.019 µM under setting [3].
In the same order, the values of `CN[C@@H](C)C(=O)N[C@H](C(=O)N1C[C@@H](NC(=O)c2cccc(C(=O)N[C@H]3C[C@@H](C(=O)NC4CCCc5c(OC)cccc54)N(C(=O)[C@@H](NC(=O)[C@H](C)NC)C(C)(C)C)C3)c2)C[C@H]1C(=O)NC1CCCc2c(OC)cccc21)C(C)(C)C` (single isomer, unassigned) [Compound 46] are greater than 1 µM, 0.048 µM and 0.014 µM.
With `CN[C@@H](C)C(=O)N[C@H](C(=O)N1CCC[C@H]1Cn1cnnc1Cc1ccccc1)[C@@H](C)OCC#CC#CCO[C@H](C)[C@H](NC(=O)[C@H](C)NC)C(=O)N1CCC[C@H]1Cn1cnnc1Cc1ccccc1` [Compound 80], the IC50 by setting is: under setting [1], greater than 1 µM; under setting [2], greater than 1 µM; under setting [3], greater than 1 µM.
Regarding `CN[C@@H](C)C(=O)N[C@H](C(=O)N1C[C@@H](NC(=O)c2cccc(C(=O)N[C@H]3C[C@@H](C(=O)N[C@@H]4CCCc5ccc(OC)cc54)N(C(=O)[C@@H](NC(=O)[C@H](C)NC)C(C)(C)C)C3)c2)C[C@H]1C(=O)N[C@@H]1CCCc2ccc(OC)cc21)C(C)(C)C` [Compound 44], the IC50 runs as follows: under setting [1], greater than 1 µM; under setting [2], 0.215 µM; under setting [3], 0.198 µM.
For `CN[C@@H](C)C(=O)N[C@@H](CCCCCC[C@H](NC(=O)[C@H](C)NC)C(=O)N1CCC[C@H]1CNC(=O)c1ccccn1)C(=O)N1CCC[C@H]1CNC(=O)c1ccccn1` [Compound 17] the same measures were greater than 1 µM, greater than 1 µM and greater than 1 µM.
Take `CN[C@@H](C)C(=O)N[C@@H](C)C(=O)N1C[C@@H](NC(=O)c2cccc(C(=O)N[C@H]3C[C@@H](C(=O)N[C@@H]4CCCc5ccccc54)N(C(=O)[C@@H](NC(=O)[C@H](C)NC)C(C)(C)C)C3)c2)C[C@H]1C(=O)N[C@H](C)c1ccccc1` [Compound 172]: the IC50 is greater than 1 µM under setting [1], 0.025 µM under setting [2] and 0.028 µM under setting [3].
Take `CN[C@@H](C)C(=O)N[C@@H](CCCCNC(=O)CCCCCCC(=O)NCCCC[C@H](NC(=O)[C@H](C)NC)C(=O)N1CCC[C@H]1C(=O)N[C@@H]1CCCc2ccccc21)C(=O)N1CCC[C@H]1C(=O)N[C@@H]1CCCc2ccccc21` [Compound P2-34]: the IC50 runs as follows: under setting [4], greater than 1 µM; under setting [5], 0.04 µM; under setting [6], 0.064 µM.
Take `CN[C@@H](C)C(=O)N[C@H](C(=O)N1C[C@@H](NC(=O)c2cc(C(=O)N[C@H]3C[C@@H](C(=O)N[C@H](C)c4ccccc4)N(C(=O)[C@@H](NC(=O)[C@H](C)NC)[C@@H](C)OC)C3)[nH]n2)C[C@H]1C(=O)N[C@H](C)c1ccccc1)[C@@H](C)OC` [Compound P3-110]: the IC50 is greater than 1 µM (Homo sapiens, PANC-1 cells, compound alone, read-out: IC50 (uM) in cell viability assay in PANC-1 cells, Cmpnd alone); 0.056 µM (PANC-1 cells, + 100 ng/ml TNFa, read-out: IC50 (uM) in cell viability assay in PANC-1 cells, Cmpnd + 100 ng/ml TNFa); 0.073 µM (PANC-1 cells, + 300 ng/ml TRAIL, read-out: IC50 (uM) in cell viability assay in PANC-1 cells, Cmpnd + 300 ng/ml TRAIL).
`CN[C@@H](C)C(=O)N[C@H](C(=O)N1C[C@@H](NC(=O)c2cccc(C(=O)N[C@H]3C[C@@H](C(=O)NC4CCCc5ccc([N+](=O)[O-])cc54)N(C(=O)[C@@H](NC(=O)[C@H](C)NC)C(C)(C)C)C3)c2)C[C@H]1C(=O)NC1CCCc2ccc([N+](=O)[O-])cc21)C(C)(C)C` (single isomer, unassigned) [Compound 64]: the IC50 runs as follows: under setting [1], greater than 1 µM; under setting [2], 0.18 µM; under setting [3], 0.151 µM.
For `CN[C@@H](C)C(=O)N[C@H](C(=O)N1C[C@@H](NC(=O)CCc2ccc(C(=O)N[C@H]3C[C@@H](C(=O)N[C@@H]4CCCc5ccccc54)N(C(=O)[C@@H](NC(=O)[C@H](C)NC)C(C)(C)C)C3)cc2)C[C@H]1C(=O)N[C@@H]1CCCc2ccccc21)C(C)(C)C` [Compound 191] the same measures were greater than 1 µM, 0.013 µM and 0.012 µM.
For `CN[C@@H](C)C(=O)N[C@@H](CCCCNC(=O)c1cc(C(=O)NCCCC[C@H](NC(=O)[C@H](C)NC)C(=O)N2CCC[C@H]2Cn2nnnc2Sc2ccccc2)[nH]n1)C(=O)N1CCC[C@H]1Cn1nnnc1Sc1ccccc1` [Compound 208] the same measures were greater than 1 µM, 0.614 µM and greater than 1 µM.
